Experimental data reported in ChEMBL document CHEMBL1201862, “PubChem BioAssay data set” (2004).
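In this assay, cells in 96-well plates receive the compound at five concentrations for 48 hours. Endpoints are linearly interpolated between the surrounding concentrations. GI50 marks 50% less growth.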 Active and inactive are the calls of the source. Cut-off read from the data, not from the text of the source: active = GI50 up to about 1.1 µM and inactive = higher.

Experiments:
Assay in all cases: DTP human tumour cell line panel, 48 h
CAKI-1 = test system: CAKI-1
COLO 205 = test system: COLO 205
EKVX = test system: EKVX
HCT-15 = test system: HCT-15
HOP-92 = test system: HOP-92
Hs-578T = test system: Hs-578T
KM12 = test system: KM12
LOX IMVI = test system: LOX IMVI
MCF7 = test system: MCF7
MDA-MB-435 = test system: MDA-MB-435
MOLT-4 = test system: MOLT-4
Malme-3M = test system: Malme-3M
RXF 393 = test system: RXF 393
SF-268 = test system: SF-268
SK-MEL-2 = test system: SK-MEL-2
SK-MEL-5 = test system: SK-MEL-5
SK-OV-3 = test system: SK-OV-3
SN12C = test system: SN12C
SNB-75 = test system: SNB-75
T47D = test system: T47D

Structure (SMILES) | GI50 (CAKI-1) | GI50 (COLO 205) | GI50 (EKVX) | GI50 (HCT-15) | GI50 (HOP-92) | GI50 (Hs-578T) | GI50 (KM12) | GI50 (LOX IMVI) | GI50 (MCF7) | GI50 (MDA-MB-435) | GI50 (MOLT-4) | GI50 (Malme-3M) | GI50 (RXF 393) | GI50 (SF-268) | GI50 (SK-MEL-2) | GI50 (SK-MEL-5) | GI50 (SK-OV-3) | GI50 (SN12C) | GI50 (SNB-75) | GI50 (T47D)
COC1=C(C)C(=O)c2c(c(COC(N)=O)c3n2CC2C3N2C)C1=O (stereo not given) | < 0.01 µM (active) | < 0.0157 µM (active) | 0.14 µM (active) | < 0.0118 µM | 0.148 µM (active) | 0.16 µM (active) | < 0.0166 µM (active) | < 0.01 µM (active) | < 0.01 µM (active) | 0.0189 µM (active) | < 0.0147 µM (active) | 0.0495 µM (active) | < 0.0331 µM (active) | 0.0256 µM (active) | 0.0361 µM (active) | 0.0209 µM (active) | < 0.0156 µM (active) | 0.0132 µM (active) | < 0.0179 µM (active) | 0.0301 µM (active)
Nc1ccc2c(=S)c3ccccc3[nH]c2c1 | 9.23 µM (inactive) | 24.5 µM (inactive) | 36.5 µM (inactive) | 24.2 µM | 26.2 µM (inactive) | 55.6 µM (inactive) | 44.4 µM (inactive) | 26.4 µM (inactive) | 20.1 µM (inactive) | 42.2 µM (inactive) | 18.7 µM (inactive) | 40.3 µM (inactive) | 39.6 µM (inactive) | 65.9 µM (inactive) | 51.9 µM (inactive) | 33.5 µM (inactive) | 22.2 µM (inactive) | > 77.6 µM (inactive) | 18.7 µM (inactive) | 20.1 µM (inactive)
CC(Cl)(CCC(Cl)C(C)(C)Cl)C(=O)CBr (stereo not given) | 14 µM (inactive) | 6.27 µM (inactive) | 16.4 µM (inactive) | 8.28 µM | 7.93 µM (inactive) | 17.4 µM (inactive) | 15.6 µM (inactive) | 2.06 µM (inactive) | 13 µM (inactive) | 14.2 µM (inactive) | 1.21 µM (inactive) | 12.3 µM (inactive) | 2.88 µM (inactive) | 16.7 µM (inactive) | 14.7 µM (inactive) | 8.49 µM (inactive) | 13.4 µM (inactive) | 14.7 µM (inactive) | 13.6 µM (inactive) | 17.9 µM (inactive)
COc1ccc2c(-c3cc4ccccc4o3)cc(=O)oc2c1 | 40.6 µM (inactive) | > 100 µM (inactive) | 48.6 µM (inactive) | > 100 µM | 24.3 µM (inactive) | 11.4 µM (inactive) | 98.2 µM (inactive) | 60.7 µM (inactive) | > 67.3 µM (inactive) | > 100 µM (inactive) | > 100 µM (inactive) | 71.1 µM (inactive) | 18 µM (inactive) | 25.3 µM (inactive) | 66.5 µM (inactive) | 40.1 µM (inactive) | 23.1 µM (inactive) | 68.9 µM (inactive) | 8.17 µM (inactive) | > 55 µM (inactive)
CCCc1[nH]nc(C(N)=O)c1/N=N/N(C)C | 28.4 µM (inactive) | 63.2 µM (inactive) | 26.3 µM (inactive) | 50.4 µM | 33.3 µM (inactive) | 50 µM (inactive) | 37.1 µM (inactive) | 47 µM (inactive) | 20.1 µM (inactive) | > 100 µM (inactive) | 15 µM (inactive) | 98.2 µM (inactive) | 41.5 µM (inactive) | 36.9 µM (inactive) | > 100 µM (inactive) | 50.1 µM (inactive) | 59.7 µM (inactive) | 48.3 µM (inactive) | 16.1 µM (inactive) | 54 µM (inactive)
COC(=O)C1(Cc2ccc3c(c2)CCC3)Cc2ccc3c(c2C1=O)CCC3 (stereo not given) | 5.45 µM (inactive) | 3.05 µM (inactive) | 11.1 µM (inactive) | 3.66 µM | 4.84 µM (inactive) | 3.26 µM (inactive) | 4.12 µM (inactive) | 5.87 µM (inactive) | 3.43 µM (inactive) | 1.73 µM (inactive) | 4.06 µM (inactive) | 4.02 µM (inactive) | 2.11 µM (inactive) | 10 µM (inactive) | 4.32 µM (inactive) | 4.35 µM (inactive) | 20.4 µM (inactive) | 12.2 µM (inactive) | 5.42 µM (inactive) | 4.35 µM (inactive)
Clc1ccc(/C(=C/c2ccccc2)Cn2ccnc2)cc1 | 19.3 µM (inactive) | 18.6 µM (inactive) | 31.9 µM (inactive) | 20.2 µM | 12.7 µM (inactive) | 44.5 µM (inactive) | 13.2 µM (inactive) | 19.2 µM (inactive) | 20.4 µM (inactive) | 19.9 µM (inactive) | 13.6 µM (inactive) | 8.97 µM (inactive) | 14.6 µM (inactive) | > 100 µM (inactive) | 14.6 µM (inactive) | 11.1 µM (inactive) | 19.1 µM (inactive) | 22.1 µM (inactive) | 18.6 µM (inactive) | 12 µM (inactive)
c1cc2cc(Cc3ccc4[nH]ccc4c3)ccc2[nH]1 | 17.1 µM (inactive) | 17.5 µM (inactive) | 15.3 µM (inactive) | 13.9 µM | 15.2 µM (inactive) | 19.9 µM (inactive) | 14.2 µM (inactive) | 27.8 µM (inactive) | 14.1 µM (inactive) | 16.4 µM (inactive) | 10.7 µM (inactive) | 15.2 µM (inactive) | 19.6 µM (inactive) | 20.6 µM (inactive) | 22.4 µM (inactive) | 16.1 µM (inactive) | 19.5 µM (inactive) | 17.4 µM (inactive) | 17.9 µM (inactive) | 15.6 µM (inactive)
N/N=C1/C(=N/O)CCc2nonc21 | > 100 µM (inactive) | > 100 µM (inactive) | 41.6 µM (inactive) | > 100 µM | > 100 µM (inactive) | > 100 µM (inactive) | > 100 µM (inactive) | > 100 µM (inactive) | > 100 µM (inactive) | > 100 µM (inactive) | > 100 µM (inactive) | > 100 µM (inactive) | > 100 µM (inactive) | > 100 µM (inactive) | > 100 µM (inactive) | > 100 µM (inactive) | > 100 µM (inactive) | > 100 µM (inactive) | > 100 µM (inactive) | > 100 µM (inactive)
O=C(c1ccccc1)c1sc2c(=O)c(C(=O)c3ccccc3)c(C(=O)c3ccccc3)sc2c(=O)c1C(=O)c1ccccc1 | 18.9 µM (inactive) | > 100 µM (inactive) | > 100 µM (inactive) | 35 µM | 37.2 µM (inactive) | 77.6 µM (inactive) | > 100 µM (inactive) | 25.1 µM (inactive) | 23.7 µM (inactive) | 27.1 µM (inactive) | 20.7 µM (inactive) | 75.7 µM (inactive) | 23.8 µM (inactive) | 46.7 µM (inactive) | 50.6 µM (inactive) | 32 µM (inactive) | 37.8 µM (inactive) | 54.8 µM (inactive) | 24.5 µM (inactive) | 47.5 µM (inactive)
COC(=O)c1ccccc1Nc1ccccc1C(=O)OC | > 100 µM (inactive) | > 100 µM (inactive) | > 100 µM (inactive) | > 100 µM | 23.4 µM (inactive) | 20.8 µM (inactive) | > 100 µM (inactive) | 56.1 µM (inactive) | > 100 µM (inactive) | > 100 µM (inactive) | > 100 µM (inactive) | 37.9 µM (inactive) | 68.7 µM (inactive) | 54.2 µM (inactive) | > 100 µM (inactive) | 54.7 µM (inactive) | > 100 µM (inactive) | > 100 µM (inactive) | 39.3 µM (inactive) | 44.2 µM (inactive)
CC(=O)OCCCOCn1c(Cc2ccccc2)c(C)c(=O)[nH]c1=O | > 100 µM (inactive) | > 100 µM (inactive) | > 100 µM (inactive) | > 100 µM | > 100 µM (inactive) | > 100 µM (inactive) | > 100 µM (inactive) | > 100 µM (inactive) | > 100 µM (inactive) | > 100 µM (inactive) | > 100 µM (inactive) | > 100 µM (inactive) | > 100 µM (inactive) | > 100 µM (inactive) | > 100 µM (inactive) | > 100 µM (inactive) | > 100 µM (inactive) | > 100 µM (inactive) | > 100 µM (inactive) | > 100 µM (inactive)
COC(=O)C(Cc1ccc2c(c1)CCCC2)Cc1cc2c(cc1C(O)OC)CCC2 (stereo not given) | > 100 µM (inactive) | 37.7 µM (inactive) | 39.4 µM (inactive) | 33.7 µM | 18.5 µM (inactive) | 57.9 µM (inactive) | 44.7 µM (inactive) | 30.4 µM (inactive) | 29.4 µM (inactive) | 38.2 µM (inactive) | 58.9 µM (inactive) | 38.1 µM (inactive) | 24.3 µM (inactive) | 49.9 µM (inactive) | > 100 µM (inactive) | 33.4 µM (inactive) | > 100 µM (inactive) | 96.2 µM (inactive) | > 100 µM (inactive) | 29.3 µM (inactive)
COc1ccc(NC2C(=O)C3(C)CCC2C3(C)C)cc1 (stereo not given) | > 100 µM (inactive) | > 100 µM (inactive) | > 100 µM (inactive) | > 100 µM | 33.4 µM (inactive) | > 100 µM (inactive) | > 100 µM (inactive) | > 100 µM (inactive) | > 100 µM (inactive) | > 100 µM (inactive) | 67.8 µM (inactive) | > 100 µM (inactive) | > 100 µM (inactive) | > 100 µM (inactive) | > 100 µM (inactive) | 34.5 µM (inactive) | > 100 µM (inactive) | > 100 µM (inactive) | > 100 µM (inactive) | > 100 µM (inactive)
